Measurements as given in publication doi:10.1101/630459v1 (bioRxiv, 2019).
Marks after values point to notes of the source that are not given here.

Columns and labels:
Type in all cases: in vivo, BALB/cAnNRj mice
active caspase-3 = experiment: Indirect immunohistochemistry of active caspase-3 in organ cryosections
Serum parameter analysis = experiment: Serum parameter analysis
Blood parameter analysis = experiment: Blood parameter analysis
[1] = busulfan 18.8 mg/kg i.p. day 0, 2, 4, day 5, n = 5, mean ± SD
[2] = busulfan 18.8 mg/kg i.p., d3, mean, n = 6
[3] = busulfan 18.8 mg/kg i.p., d5, mean, n = 10
[4] = busulfan 18.8 mg/kg i.p., d5, mean, n = 11
[5] = doxorubicin 4 mg/kg BW i.p. day 0, 7, 14, day 15, n = 3, mean ± SD
[6] = doxorubicin 4 mg/kg BW i.p. day 0, 7, 14, day 15, n = 4, mean ± SD
[7] = doxorubicin 4 mg/kg BW i.p., d8, mean, n = 3
[8] = doxorubicin 4 mg/kg BW i.p., d15, mean, n = 4
[9] = cisplatin 20 mg/kg BW i.p. once, day 3, n = 3, mean ± SD
[10] = cisplatin 20 mg/kg BW i.p. once, d1, mean, n = 3
[11] = cisplatin 20 mg/kg BW i.p. once, d2, mean, n = 8
[12] = cisplatin 20 mg/kg BW i.p. once, d2, mean, n = 9
[13] = cisplatin 20 mg/kg BW i.p. once, d3, mean, n = 4
[14] = cisplatin 20 mg/kg BW i.p. once, d2, mean, n = 12
[15] = cisplatin 20 mg/kg BW i.p. once, d3, mean, n = 5

In the case of `CS(=O)(=O)OCCCCOS(C)(=O)=O` [Busulfan], the “caspase-3 activation, liver” value (active caspase-3; [1]) is reported as 3.0 ± 0.1 % area, the “caspase-3 activation, lungs” value (active caspase-3; [1]) is reported as 0.4 ± 0.1 % area and the ALT (Serum parameter analysis; [2]) is reported as 55.33 U/L. The AST (Serum parameter analysis; [2]) was 82.5 U/L, the CK (Serum parameter analysis; [2]) was 141.5 U/L and the Creatinine (Serum parameter analysis; [2]) was 11.17 µmol/L. It also gave a Urea (Serum parameter analysis; [2]) of 7.81 mmol/L, an ALT (Serum parameter analysis; [3]) of 87.1 U/L and an AST (Serum parameter analysis; [3]) of 84.4 U/L. For the same compound, the CK (Serum parameter analysis; [3]) was 160.2 U/L, the Creatinine (Serum parameter analysis; [3]) was 12.6 µmol/L and the Urea (Serum parameter analysis; [3]) was 7.19 mmol/L. The HCT (Blood parameter analysis; [2]) was 42.0%, the HGB (Blood parameter analysis; [2]) was 15.2 g/dL and the PLT (Blood parameter analysis; [2]) was 849.3 10^3/µl. The RBC (Blood parameter analysis; [2]) was 9.79 10^6/µl, the WBC (Blood parameter analysis; [2]) was 4730 µL⁻¹ and the HCT (Blood parameter analysis; [4]) was 35.2%. For the same compound, the HGB (Blood parameter analysis; [4]) was 13.3 g/dL, the PLT (Blood parameter analysis; [4]) was 1.175e+06 µL⁻¹ and the RBC (Blood parameter analysis; [4]) was 8.32 10^6/µl. The WBC (Blood parameter analysis; [4]) was 4940 µL⁻¹.

In the case of `COc1cccc2c1C(=O)c1c(O)c3c(c(O)c1C2=O)C[C@@](O)(C(=O)CO)C[C@@H]3O[C@H]1C[C@H](N)[C@H](O)[C@H](C)O1` [Doxorubicin], the “caspase-3 activation, liver” value (active caspase-3; [5]) is reported as 3.5 ± 1.5 % area, the “caspase-3 activation, lungs” value (active caspase-3; [5]) is reported as 0.7 ± 0.1 % area and the “caspase-3 activation, heart” value (active caspase-3; [6]) is reported as 2.2 ± 0.7 % area. For the same compound, the “caspase-3 activation, kidneys” value (active caspase-3; [6]) was 1.1 ± 0.3 % area, the “caspase-3 activation, lungs” value (active caspase-3; doxorubicin 4 mg/kg BW i.p., day 8, n = 3, mean ± SD) was 0.6 ± 0.2 % area and the ALT (Serum parameter analysis; [7]) was 90.33** U/L. For the same compound, the AST (Serum parameter analysis; [7]) was 94.67 U/L, the CK (Serum parameter analysis; [7]) was 109.7 U/L and the Creatinine (Serum parameter analysis; [7]) was 15.33* µmol/L. For the same compound, the Urea (Serum parameter analysis; [7]) was 7.73 mmol/L, the ALT (Serum parameter analysis; [8]) was 52.25 U/L and the AST (Serum parameter analysis; [8]) was 96.5 U/L. The CK (Serum parameter analysis; [8]) was 195.3* U/L, the Creatinine (Serum parameter analysis; [8]) was 16.25** µmol/L and the Urea (Serum parameter analysis; [8]) was 7 mmol/L. For the same compound, the HCT (Blood parameter analysis; [7]) was 41.2%, the PLT (Blood parameter analysis; [7]) was 1011 10^3/µl and the RBC (Blood parameter analysis; [7]) was 9.62 10^6/µl. For the same compound, the WBC (Blood parameter analysis; [7]) was 9.2 10^3/µl, the HCT (Blood parameter analysis; [8]) was 34.1*** % and the PLT (Blood parameter analysis; [8]) was 1.106e+06 µL⁻¹. The RBC (Blood parameter analysis; [8]) was 7.98*** 10^6/µl and the WBC (Blood parameter analysis; [8]) was 6.5 10^3/µl.

For `N.N.[Cl][Pt][Cl]` [Cisplatin], the “caspase-3 activation, kidneys” value (active caspase-3; cisplatin 20 mg/kg BW i.p. once, day 2, n = 3, mean ± SD) was 1.0 ± 0.1 % area, the “caspase-3 activation, liver” value (active caspase-3; [9]) was 4.3 ± 0.7 % area and the “caspase-3 activation, lungs” value (active caspase-3; [9]) was 0.5 ± 0.1 % area. For the same compound, the “caspase-3 activation, spleen” value (active caspase-3; cisplatin 20 mg/kg BW i.p. once, day 3, n = 4, mean ± SD) was 10.5 ± 4.8 % area, the ALT (Serum parameter analysis; [10]) was 58 U/L and the AST (Serum parameter analysis; [10]) was 122 U/L. For the same compound, the CK (Serum parameter analysis; [10]) was 180.7 U/L, the Creatinine (Serum parameter analysis; [10]) was 16.67 µmol/L and the Urea (Serum parameter analysis; [10]) was 6.32 mmol/L. For the same compound, the ALT (Serum parameter analysis; [11]) was 88.88 U/L, the AST (Serum parameter analysis; [11]) was 200* U/L and the CK (Serum parameter analysis; [12]) was 372.6 U/L. For the same compound, the Creatinine (Serum parameter analysis; [12]) was 27.67** µmol/L, the Urea (Serum parameter analysis; [12]) was 15.09* mmol/L and the ALT (Serum parameter analysis; [13]) was 63.5 U/L. The AST (Serum parameter analysis; [13]) was 183.8 U/L, the CK (Serum parameter analysis; [13]) was 586.3* U/L and the Creatinine (Serum parameter analysis; [13]) was 22.25 µmol/L. For the same compound, the Urea (Serum parameter analysis; [13]) was 11.08 mmol/L, the HCT (Blood parameter analysis; [10]) was 43.5** % and the HGB (Blood parameter analysis; [10]) was 15.9* g/dL. The PLT (Blood parameter analysis; [10]) was 797 10^3/µl, the RBC (Blood parameter analysis; [10]) was 10.23 10^6/µl and the WBC (Blood parameter analysis; [10]) was 5.63 10^3/µl. The HCT (Blood parameter analysis; [14]) was 40.5%, the HGB (Blood parameter analysis; [14]) was 15.08 g/dL and the RBC (Blood parameter analysis; [14]) was 9.45 10^6/µl. For the same compound, the WBC (Blood parameter analysis; [14]) was 4.85** 10^3/µl, the HCT (Blood parameter analysis; [15]) was 41.6% and the HGB (Blood parameter analysis; [15]) was 15.38 g/dL. The PLT (Blood parameter analysis; [15]) was 1147** 10^3/µl, the RBC (Blood parameter analysis; [15]) was 9.81e+06 µL⁻¹ and the WBC (Blood parameter analysis; [15]) was 3.68** 10^3/µl.
